In brackets after ≈: the same amount, converted by molar mass. Like-named read-outs stand apart in the source and are kept apart here.
Columns and labels:
[1] = tested on: souches de Staphylococcus aureus résistant à la triméthoprime; test: MIC determination by serial dilution on Mueller-Hinton agar; assay type: cell-based; conditions: 18 h, compounds as isethionate, read-out: CMI
[2] = tested on: souches de Staphylococcus aureus résistant à la triméthoprime; test: as above; assay type: cell-based; conditions: 18 h, from hospitalised patients, compounds as free base, read-out: CMI
Experimental: (§1) A cet effet, on a déterminé l'activité bactériostatique par la méthode des antibiogrammes par dilution en milieu gélosé (milieu de MUELLER-HINTON déshydraté) et par diffusion en milieu gélosé.
(§2) On a utilisé le composé à étudier selon une gamme de concentrations de 0,625 à 640 µg/ml (progression de raison 2) à partir de solutions-mères titrant 640 µg/ml à 1280 µg/ml selon la solubilité du composé, toutes les dilutions ultérieures ayant été réalisées dans un mélange méthanol/eau à 20%.
(§3) On a procédé sur milieu gélosé de MUELLER-HINTON déshydraté, par la méthode des dilutions sériées, les concentrations finales en composé à étudier s'échelonnant de 0,0625 à 32 ou 64 µg/ml.
(§4) A cet effet, on ensemence des boîtes de PETRI à l'aide d'un inoculateur multiple (inoculum de 5 x 10³ à 1 x 10⁴ unités formant colonies par spot d'inoculation) et on enregistre le résultat après 18 h à 37°C en ne tenant pas compte des micro-colonies qui se développent parfois ni de la présence de moins de 4 colonies d'aspect normal.
Les composés sous forme basique, des Exemples 1 et 4 ont été étudiés comparativement à la triméthoprime (TMP) à l'égard de 4 souches provenant de malades hospitalisés.
A cet effet, on a solubilisé les composés à étudier sous forme basique dans un mélange comprenant 9 ml d'eau distillée, 1 ml de diméthylformamide et quelques gouttes d'acide iséthionique.

[3] = tested on: souches de Staphylococcus aureus résistant à la triméthoprime; test: Bacteriostatic activity by disc diffusion on Mueller-Hinton agar; assay type: cell-based; conditions: 5 µg per disc, free base, read-out: Diamètre d'inhibition
Experimental: On utilise à cet effet le milieu gélosé de MUELLER-HINTON que l'on ensemence par inondation à partir d'une suspension bactérienne titrant 5 x 10⁶ à 1 x 10⁷ unités formant colonies par ml. On imprègne les disques (disque de 6 mm de diamètre de SCHLEICHER et SCHULL) avec 20 µl d'une solution de chaque composé à étudier de façon à obtenir une charge de 5 µg par disque. A titre de contrôle lors de chaque manipulation, on charge également un disque avec 5 µg de triméthoprime. On néglige également dans ce test les microcolonies qui peuvent apparaître à l'intérieur des zones d'inhibition.
On a obtenu les résultats suivants exprimés en mm d'inhibition, avec des composés de l'invention sous forme basique comparativement à la triméthoprime. Ces résultats ont été enregistrés vis-à-vis de souches de Staphylococcus aureus résistant à la triméthoprime.

Escherichia coli = test: MIC determination by serial dilution on Mueller-Hinton agar, trimethoprim-sensitive strains; assay type: cell-based; conditions: isethionates, read-out: CMI
Experimental: as §1, §2, §3, §4

Listeria monocytogenes = test: as above; assay type: cell-based; conditions: isethionates; for MIC: 18 h, Listeria monocytogenes 485, TMP-sensitive, read-out: CMI
Experimental: as §1, §2, §3, §4

Serratia marcescens = test: as above; assay type: cell-based; conditions: 18 h; Serratia marcescens 56644; isethionates; read-out: CMI
Experimental: as §1, §2, §3, §4

Staphylococcus aureus = test: as above; assay type: cell-based; conditions: isethionates, read-out: CMI
Experimental: as §1, §2, §3, §4

[4] = Acute toxicity, intravenous; conditions: mouse, in vivo; mice, groups of 5, intravenous route; read-out: DL₅₀
Experimental: La toxicité aiguë des composés de l'invention a été déterminée sur des lots de 5 souris par voie intraveineuse. On a ainsi trouvé que la DL₅₀du composé de l'Exemple 9, selon cette voie d'administration, est de 157,4 mg/kg.

[5] = tested on: 73 souches de bacilles à Gram -; test: Activity against Gram-negative bacilli, count of resistant strains; assay type: cell-based; conditions: number of resistant strains out of 73 Gram-negative bacilli strains
From the text: (§5) L'action du composé de l'Exemple 21 a été étudiée comparativement à l'iséthionate de triméthoprime vis-à-vis de 73 souches de bacilles à Gram -. Des résultats trouvés, on a pu conclure que 33 souches étaient résistantes au sel de triméthoprime et 65 souches étaient résistantes au composé de l'Exemple 21.

bacilles à Gram - = test: Activity in association with sulfamethoxazole; assay type: cell-based
From the text: as §5
Par contre, si on associe chacun de ces composés au sulfaméthoxazole, le spectre d'activité de l'association composé de l'Exemple 21/-sulfaméthoxazole est similaire à celui de l'association de triméthoprime/ sulfaméthoxazole.

[6] = strain No. 23543, TMP-resistant
[7] = strain No. 33274, TMP-resistant
[8] = strain No. 40314, TMP-resistant
[9] = strain No. 57760, TMP-resistant
[10] = ATCC25922, 18 h, Escherichia coli ATCC 25922
[11] = Listeria monocytogenes 378, TMP-sensitive
[12] = 18 h, Staphylococcus aureus 18839, TMP-sensitive
[13] = ATCC6338, 18 h, Staphylococcus aureus ATCC 6338, TMP-sensitive
[14] = ATCC25923, 18 h, Staphylococcus aureus ATCC 25923, TMP-sensitive
[15] = Listeria monocytogenes 5921, TMP-sensitive
[16] = Listeria monocytogenes 6777, TMP-sensitive

SMILES	MIC ([1]; strain No. 82, TMP-resistant)	MIC ([1]; strain No. 87, TMP-resistant)	MIC ([1]; strain No. 102, TMP-resistant)	MIC ([1]; strain No. 107, TMP-resistant)	MIC [2, 6]	MIC [2, 7]	MIC [2, 8]	MIC [2, 9]	zone of inhibition at 5 µg/disc [3, 6]	zone of inhibition at 5 µg/disc [3, 7]	zone of inhibition at 5 µg/disc [3, 8]	zone of inhibition at 5 µg/disc [3, 9]	MIC (Escherichia coli; 18 h, Escherichia coli 33430)	MIC (Escherichia coli; [10])	MIC (Listeria monocytogenes)	CMI (Listeria monocytogenes; [11])	MIC (Serratia marcescens)	MIC (Staphylococcus aureus; [13])	MIC (Staphylococcus aureus; [14])	MIC ([1]; strain No. 101, TMP-resistant)	also measured
COc1cc(Cc2cnc(N)nc2N)c(I)cc1OC1CCCC1 [Ex. 18, Iséthionate de diamino-2,4 (iodo-2 cyclopentyloxy-4 méthoxy-5 benzyl)-5 pyrimidine]	2 µg/mL (≈ 4.54 µM)	2 µg/mL (≈ 4.54 µM)	4 µg/mL (≈ 9.09 µM)	4 µg/mL (≈ 9.09 µM)																	
COc1cc(Cc2cnc(N)nc2N)c(I)cc1OC1CCCC1 [Ex. 4, Diamino-2,4 (iodo-2 cyclopentyloxy-4 méthoxy-5 benzyl)-5 pyrimidine]					2 µg/mL (≈ 4.54 µM)	0.25 µg/mL (≈ 0.568 µM)	< 0.06 µg/mL	2 µg/mL (≈ 4.54 µM)	19 mm	29 mm	35 mm	20 mm									
COc1cc(Cc2cnc(N)nc2N)ccc1OC1CCCC1 [Composé X, reference compound]	32 µg/mL (≈ 102 µM)	8 µg/mL (≈ 25.4 µM)	32 µg/mL (≈ 102 µM)										> 64 µg/mL	> 64 µg/mL	0.25 µg/mL (≈ 0.795 µM)	0,25 µg/ml	32 µg/mL (≈ 102 µM)	0.25 µg/mL (≈ 0.795 µM)	1 µg/mL (≈ 3.18 µM)	32 µg/mL (≈ 102 µM)	MIC (Staphylococcus aureus; [12]): 0.5 µg/mL (≈ 1.59 µM)
CCOc1cc(I)c(Cc2cnc(N)nc2N)cc1OCC [Exemple 9, Lactobionate de diamino-2,4 (iodo-2 diéthoxy-4,5 benzyl)-5 pyrimidine]																					LD50 [4]: 157 mg/kg
COc1cc(Cc2cnc(N)nc2N)cc(OC)c1OC [TMP, diamino-2,4 (triméthoxy-3,4,5 benzyl)-5 pyrimidine, reference compound]					16 µg/mL (≈ 55.1 µM)	> 64 µg/mL	64 µg/mL (≈ 220 µM)	> 64 µg/mL	0 mm	0 mm	0 mm	0 mm									
COc1cc(Cc2cnc(N)nc2N)c(Br)cc1OC1CCCCC1 [Ex. 24, Iséthionate de diamino-2,4 (bromo-2 cyclohexyloxy-4 méthoxy-5 benzyl)-5 pyrimidine]	0.5 µg/mL (≈ 1.23 µM)	1 µg/mL (≈ 2.46 µM)	0.5 µg/mL (≈ 1.23 µM)										> 64 µg/mL	> 64 µg/mL	0.06 µg/mL (≈ 0.147 µM)	0,06 µg/ml	> 64 µg/mL	0.06 µg/mL (≈ 0.147 µM)		0.5 µg/mL (≈ 1.23 µM)	CMI (Listeria monocytogenes; [15]): 0,06 µg/ml; CMI (Listeria monocytogenes; [16]): 0,06 µg/ml; MIC (Staphylococcus aureus; [12]): 0.06 µg/mL (≈ 0.147 µM)
COc1cc(Cc2cnc(N)nc2N)c(Br)cc1OC1CCCC1 [Ex. 21, Iséthionate de diamino-2,4 (bromo-2 cyclopentyloxy-4 méthoxy-5 benzyl)-5 pyrimidine]	1 µg/mL (≈ 2.54 µM)	1 µg/mL (≈ 2.54 µM)	1 µg/mL (≈ 2.54 µM)	4 µg/mL (≈ 10.2 µM)									16 µg/mL (≈ 40.7 µM)	32 µg/mL (≈ 81.4 µM)	0.06 µg/mL (≈ 0.153 µM)	0,06 µg/ml	16 µg/mL (≈ 40.7 µM)	0.06 µg/mL (≈ 0.153 µM)	0.5 µg/mL (≈ 1.27 µM)	2 µg/mL (≈ 5.09 µM)	CMI (Listeria monocytogenes; [15]): 0,06 µg/ml; CMI (Listeria monocytogenes; [16]): 0,06 µg/ml; souches résistantes [5]: 65 souches; potentialisation du sulfaméthoxazole (bacilles à Gram -; compared with the trimethoprim salt): potentialise aussi bien le sulfaméthoxazole que ne le fait le sel de triméthoprime; spectre d'activité de l'association (bacilles à Gram -; in association with sulfaméthoxazole, compared with the association triméthoprime/sulfaméthoxazole): similaire; MIC ([1]; strain No. 109, TMP-resistant): 0.5 µg/mL (≈ 1.27 µM)
CCOc1cc(I)c(Cc2cnc(N)nc2N)cc1OC [Ex. 1, diamino-2,4 (iodo-2 éthoxy-4 méthoxy-5 benzyl)-5 pyrimidine]					2 µg/mL (≈ 5 µM)	< 0.06 µg/mL	0.12 µg/mL (≈ 0.3 µM)	1 µg/mL (≈ 2.5 µM)	19 mm	32 mm	32 mm	24 mm									
COc1cc(Cc2cnc(N)nc2N)cc(OC)c1OC [Iséthionate de TMP, iséthionate de triméthoprime, reference compound]	16 µg/mL (≈ 55.1 µM)	8 µg/mL (≈ 27.6 µM)	16 µg/mL (≈ 55.1 µM)	64 µg/mL (≈ 220 µM)									8 µg/mL (≈ 27.6 µM)	4 µg/mL (≈ 13.8 µM)			2 µg/mL (≈ 6.89 µM)	0.06 µg/mL (≈ 0.207 µM)	0.25 µg/mL (≈ 0.861 µM)	16 µg/mL (≈ 55.1 µM)	souches résistantes [5]: 33 souches; MIC ([1]; strain No. 109, TMP-resistant): 8 µg/mL (≈ 27.6 µM)
